Test results as given in US5733754A, “Enzyme and its use in preparing (S)-pipecolic acid” (Chiroscience Limited, priority 1993, dated 1998).

What was measured:
[1] = test system: N-acyl-pipecolic acid acylase; assay: Alternative substrates: activity of semi-purified enzyme preparation on N-acetylamino-acids; assay type: biochemical, Alcaligenes denitrificans; conditions: 1 ml substrate 40 g/l + 0.5 ml enzyme + 0.5 ml 100 mM Tris buffer pH 7.5; 24-25° C., 1 hour
Method: The sonicate supernatants were then used in the following biotransformation reactions. To 1 ml of the sonicate supernatants, 1 ml of 40 g/l solution of N-acetyl-rac-pipecolate, pH 7, was added in the presence of 0.02% sodium azide. The biotransformation reaction mixtures were incubated with shaking for 48 h at 25° C., after which samples were removed and analysed by HPLC. HPLC analysis was done using a 15 cm Hichrom S50DS2 column with an isocratic mobile phase of 30% methanol:70% 10 mM potassium phosphate buffer, pH 3, at a flow rate of 1 ml/min. The injection volume was 20 μl and the detection was at 240 nm, total run time was 10 minutes. Prior to loading on to the column, the sample was diluted 20-fold in the HPLC mobile phase and centrifuged. The analyses as shown by this procedure provided values of residual substrate concentrations. A substrate control was run in parallel with the sample reactions.
(§1) The activity of a semi-purified enzyme preparation, as described in Example 4, was tested on a range of alternative substrates. Various N-acetylamino-acid solutions were prepared at a concentration of 40 g/l in 100 mM Tris buffer at pH 7.5. Reactions were then set up using 1 ml of reaction substrate plus 0.5 ml enzyme plus 0.5 ml 100 mM Tris buffer, pH 7.5. The reaction mixtures were shaken at 24°-25° C. for 1 hour before being analysed for amino-acid formation. The extent of reaction for the N-acetylpipecolic acid and N-acetylproline biotransformations was determined using the HPLC methodology described in Example 1. The extent and enantioselectivity of the other biotransformations was determined using a Nucleosil Chiral-1 (ET250/8/4 with a buffer phase of 1 mM copper acetate at pH 5 in 5% methanol, and a flow rate of 0.8 ml/min, with detection at 254 nm. Samples were diluted 100-fold and areas compared to relevant standards.

[2] = test system: N-acylamino-acid acylase of EP-A-0416282; conditions: cited from earlier work
[3] = test system: N-acyl-pipecolic acid acylase (amino acylase); assay: Alternative buffers: effect of high phosphate on the biotransformation; assay type: biochemical, Alcaligenes denitrificans; conditions: for Amino-acid formed: pH 7.5
Method: as §1
The acylase disclosed in EP-A-0416282 is inhibited by reaction in buffers containing phosphate at high concentrations. The effect of high phosphate on the biotransformation was determined using a similar methodology to that described in Example 6.

[4] = test system: N-acetyl-pipecolic acid acylase activity; assay: Use of inducer: flask cultures with additive, acylase activity of the cell extract; assay type: cell-based, Alcaligenes denitrificans; conditions: for Specific (activity) / Volumetric Activity: additive in growth medium (5 g/l), extract used in 24 hour biotransformation of 20 g/l N-acetyl-(R,S)-pipecolic acid, 1U = release of 1 μmole pipecolic acid per minute
Method: It has been observed by other workers that an inducer must be added to the fermentation medium to obtain N-acyl-amino-acid acylase activity. This adds to the cost of producing the enzyme. Flask cultures were set up to determine the requirement for an inducer. Medium used was similar to that described in Table 1, except that the N-acetyl-L-phenylalanine was omitted, 1 g/l yeast extract was added and the following 4 variations were set up.
The final pH of all flasks was adjusted to pH 7.0 and a total of 50 ml added to 500 ml conical flasks. Following inoculation, the flasks were incubated at 25° C. with shaking for 19 hours. The cells were then collected by centrifugation, resuspended in 10 mM phosphate buffer, pH 7 and lysed by sonication. The released enzyme extract was then used in a 24 hour biotransformation of 20 g/l N-acetyl-(R,S)-pipecolic acid.
1U = release of 1 μmole pipecolic acid per minute

CC(=O)NC(Cc1ccccc1)C(=O)O (racemic) [N-acetyl-(R,S)-phenylalanine]
Amino-acid formed [1]: 5.3 g/L | activity of the enzyme against substrate ([2]; enzyme of EP-A-0416282): non-detectable

CC(=O)NC(Cc1ccc(C#N)cc1)C(=O)O (racemic) [N-acetyl-(R,S)-4-cyanophenylalanine]
Amino-acid formed [1]: 8.3 g/L

phosphate
inhibition of the acylase by buffer ([2]; buffers containing phosphate at high concentrations): inhibited | inhibitory effect on the amino acylase ([3]; final phosphate concentration equal to or greater than 75 mM): no significant inhibitory effect

CC(=O)NC(C)C(=O)O (racemic) [N-acetyl-(R,S)-alanine]
Amino-acid formed [1]: 3.4 g/L | activity of the enzyme against substrate ([2]; enzyme of EP-A-0416282): non-detectable

CC(=O)N1CCC[C@H]1C(=O)O [N-acetyl-(S)-proline]
Amino-acid formed [1]: 3.2 g/L | Amino-acid formed ([3]; 100 mM Phosphate): 3.2 g/L | Amino-acid formed ([3]; 100 mM Tris): 3.2 g/L | Specific (activity) [4]: 0.033 U/mg protein | Volumetric Activity [4]: 0.042 U/ml

N-acyl-pipecolic acid
activity of the enzyme relative to its activity on N-acetyl-proline ([2]; enzyme of EP-A-0416282): less than 5%

CC(=O)NCCCC[C@H](N)C(=O)O [εN-acetyl-(S)-lysine]
Amino-acid formed [1]: 0.0 g/L

CC(=O)NC(CCC(=O)O)C(=O)O (racemic) [N-acetyl-(R,S)-glutamic acid]
Amino-acid formed [1]: 0.2 g/L

CC(=O)N1CCCCC1C(=O)O (racemic) [N-acetyl-(R,S)-pipecolic acid]
Amino-acid formed [1]: 6.3 g/L | Amino-acid formed ([3]; 100 mM Phosphate): 6.3 g/L | Amino-acid formed ([3]; 100 mM Tris): 6.3 g/L | Specific (activity) [4]: 0.086 U/mg protein | Volumetric Activity [4]: 0.017 U/ml

O=C[C@H](O)[C@@H](O)[C@H](O)[C@H](O)CO [Glucose]
N-acetyl-pipecolic acid acylase activity of the flask ([4]; additive 5 g/l in growth medium): no N-acetyl-pipecolic acid acylase activity | Volumetric Activity [4]: 0.00 U/ml
